Like-named read-outs stand apart in the source and are kept apart here.
Legend:
Type in all cases: cell-based, Escherichia coli
[1] = test system: EKO-35 araC::mdtEF; assay: MIC susceptibility profiling, efflux platform; conditions: for Fold change of MICs: EKO-35 araC::mdtEF compared to EKO-35; for MIC: Escherichia coli, Table 13A, non-porinated, technical duplicate, read-out: Minimum Inhibitory Concentration, EKO-35 araC::mdtEF
Procedure, shortened: (§1)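 LB o/n 37 °C → PBS pH 7.4, OD600 ~1.0 → 1/2000 in MHB II; 2-fold cmpd series, duplicate, DMSO ctrl; 18 h 37 °C, 900 rpm; OD600 post minus pre.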

[2] = test system: EKO-35 araC::mdtBC; assay: MIC susceptibility profiling, efflux platform; conditions: for Fold change of MICs: EKO-35 araC::mdtBC compared to EKO-35; for MIC: Escherichia coli, Table 13B, non-porinated, technical duplicate, read-out: Minimum Inhibitory Concentration, EKO-35 araC::mdtBC
Procedure, shortened: as §1

[3] = test system: EKO-35-Pore; assay: MIC susceptibility profiling, porinated strain; conditions: for Fold changes of MICs: EKO-35-Pore compared to EKO-35-Pore (reference); for MIC: Escherichia coli, technical duplicate
Procedure, shortened: (§2)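 MIC values come from background-corrected OD600 readings (pre-incubation OD subtracted) after 18 h at 37 °C and 900 rpm in MHB II. Compounds were tested in duplicate as 2-fold dilutions. The inoculum came from 18 h LB cultures adjusted to OD600 ~1.0 and diluted 1/2000, and the pore-bearing strains were vancomycin-checked beforehand.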

[4] = test system: EKO-35 araC::mexCD Pore; assay: MIC susceptibility profiling, porinated efflux platform; conditions: for Fold changes of MICs: EKO-35 araC::mexCD Pore compared to EKO-35-Pore; for MIC: Escherichia coli, EKO-35 araC::mexCD Pore, technical duplicate, read-out: Minimum inhibitory concentration
Procedure, shortened: as §2

[5] = test system: EKO-35 araC::acrD Pore; assay: as above; conditions: for Fold changes of MICs: EKO-35 araC::acrD Pore compared to EKO-35-Pore; for MIC: Escherichia coli, Table 14A, porinated, technical duplicate, read-out: Minimum inhibitory concentration, EKO-35 araC::acrD Pore
Procedure, shortened: as §2

[6] = test system: EKO-35 araC::macAB Pore; assay: as above; conditions: for Fold changes of MICs: EKO-35 araC::macAB Pore compared to EKO-35-Pore; for MIC: Escherichia coli, EKO-35 araC::macAB Pore, technical duplicate, read-out: Minimum inhibitory concentration
Procedure, shortened: as §2

[7] = test system: EKO-35 araC::mdtBC Pore; assay: as above; conditions: for Fold changes of MICs: EKO-35 araC::mdtBC Pore compared to EKO-35-Pore; for MIC: Escherichia coli, EKO-35 araC::mdtBC Pore, technical duplicate, read-out: Minimum inhibitory concentration
Procedure, shortened: as §2

[8] = test system: EKO-35 araC::acrB Pore; assay: as above; conditions: for Fold changes of MICs: EKO-35 araC::acr-B Pore compared to EKO-35-Pore
Procedure, shortened: as §2

[9] = test system: EKO-35 araC::acrBD408A Pore; assay: as above; conditions: for Fold changes of MICs: EKO-35 araC::acrBD408A Pore compared to EKO-35-Pore; for MIC: Escherichia coli, EKO-35 araC::acrBD408A Pore, technical duplicate, read-out: Minimum inhibitory concentration
Procedure, shortened: as §2

[10] = test system: EKO-35 araC::acrEF Pore; assay: as above; conditions: for Fold changes of MICs: EKO-35 araC::acrEF Pore compared to EKO-35-Pore; for MIC: Escherichia coli, Table 14A, porinated, technical duplicate, read-out: Minimum inhibitory concentration, EKO-35 araC::acrEF Pore
Procedure, shortened: as §2

[11] = test system: EKO-35 araC::emrAB Pore; assay: as above; conditions: for Fold changes of MICs: EKO-35 araC::emrAB Pore compared to EKO-35-Pore; for MIC: Escherichia coli, EKO-35 araC::emrAB Pore, technical duplicate, read-out: Minimum inhibitory concentration
Procedure, shortened: as §2

[12] = test system: EKO-35 araC::mdtEF Pore; assay: as above; conditions: for Fold changes of MICs: EKO-35 araC::mdtEF Pore compared to EKO-35-Pore; for MIC: Escherichia coli, Table 14A, porinated, technical duplicate, read-out: Minimum inhibitory concentration, EKO-35 araC::mdtEF Pore
Procedure, shortened: as §2

[13] = test system: EKO-35 araC::emrKY Pore; assay: as above; conditions: for Fold changes of MICs: EKO-35 araC::emrKY Pore compared to EKO-35-Pore; for MIC: Escherichia coli, EKO-35 araC::emrKY Pore, technical duplicate, read-out: Minimum inhibitory concentration
Procedure, shortened: as §2

[14] = test system: E. coli EKO-35; assay: microbe, parasite or virus in culture; conditions: for Fold change of MICs: EKO-35 compared to EKO-35 (reference); for MIC: Escherichia coli, EKO35, technical duplicate
Procedure, shortened: as §1

[15] = test system: E. coli ΔtolC; assay: microbe, parasite or virus in culture; conditions: for MIC: Escherichia coli, 18 h, read-out: Minimum Inhibitory Concentration, ΔtolC; for Minimum inhibitory concentration (MIC), ΔtolC: without pore, technical duplicate
Procedure, shortened: as §1

[16] = test system: wild-type E. coli K-12 str. BW25113; assay: microbe, parasite or virus in culture; conditions: Escherichia coli, BW25113, technical duplicate
Procedure, shortened: as §1

[17] = test system: ΔtolC-Pore; assay: microbe, parasite or virus in culture; conditions: for MIC: Escherichia coli, 18 h, read-out: Minimum inhibitory concentration, ΔtolC-Pore; for Minimum inhibitory concentration (MIC), Pore ΔtolC: Table 10, with pore, technical duplicate
Procedure, shortened: as §2

[18] = test system: wild-type (WT) K-12-Pore; assay: microbe, parasite or virus in culture; conditions: Escherichia coli, technical duplicate
Procedure, shortened: as §2

[19] = Table 10, with pore, read-out: Minimum inhibitory concentration (MIC), Pore EKO-35
[20] = Table 14A, porinated, read-out: Minimum inhibitory concentration, EKO-35-Pore
[21] = Table 10, without pore, read-out: Minimum inhibitory concentration (MIC), EKO-35
[22] = Table 13A, non-porinated, read-out: Minimum Inhibitory Concentration, EKO-35
[23] = Table 10, without pore, read-out: Minimum inhibitory concentration (MIC), K-12
[24] = Table 13A, non-porinated, read-out: Minimum Inhibitory Concentration, K-12
[25] = Table 10, with pore, read-out: Minimum inhibitory concentration (MIC), Pore K-12
[26] = Table 14A, porinated, read-out: Minimum inhibitory concentration, K-12 (WT)-Pore

SMILES: CCn1cc(C(=O)O)c(=O)c2ccc(C)nc21 [nalidixic acid]
- Fold change of MICs [1]: 1 fold
- MIC [1]: 1.25 µg/mL
- Fold change of MICs [2]: 1 fold
- MIC [2]: 1.25 µg/mL
- Fold changes of MICs [3]: 1 fold
- MIC [3, 19]: 1.25 µg/mL
- MIC [3, 20]: 1.25 µg/mL
- Fold changes of MICs [4]: 2 fold
- MIC [4]: 2.5 µg/mL
- Fold changes of MICs [5]: 1 fold
- MIC [5]: 1.25 µg/mL
- Fold changes of MICs [6]: 1 fold
- MIC [6]: 1.25 µg/mL
- Fold changes of MICs [7]: 1 fold
- MIC [7]: 1.25 µg/mL
- Fold changes of MICs [8]: 8 fold
- MIC ([8]; Escherichia coli, Table 14A, porinated, technical duplicate, read-out: Minimum inhibitory concentration, EKO-35 araC::acrB Pore): 10 µg/mL
- Fold changes of MICs [9]: 1 fold
- MIC [9]: 1.25 µg/mL
- efflux pump-mediated resistance vs EKO-35-Pore ([10]; AcrEF with the pore): impacted the ability of AcrEF to confer resistance
- Fold changes of MICs [10]: 2 fold
- MIC [10]: 2.5 µg/mL
- Fold changes of MICs [11]: 8 fold
- MIC [11]: 10 µg/mL
- Fold changes of MICs [12]: 1 fold
- MIC [12]: 1.25 µg/mL
- Fold changes of MICs [13]: 1 fold
- MIC [13]: 1.25 µg/mL
- Fold change of MICs [14]: 1 fold
- MIC [14, 21]: 1.25 µg/mL
- MIC [14, 22]: 1.25 µg/mL
- MIC [15]: 1.25 µg/mL
- Minimum inhibitory concentration (MIC), ΔtolC ([15]; Table 10): 1.25 µg/mL
- MIC [16, 23]: 10 µg/mL
- MIC [16, 24]: 10 µg/mL
- MIC [17]: 1.25 µg/mL
- Minimum inhibitory concentration (MIC), Pore ΔtolC [17]: 1.25 µg/mL
- MIC [18, 25]: 5 µg/mL
- MIC [18, 26]: 5 µg/mL

SMILES: CCn1cc(C(=O)O)c(=O)c2cc(F)c(N3CCNCC3)cc21 [norfloxacin]
- Fold change of MICs [1]: 1 fold
- MIC [1]: 0.02 µg/mL
- Fold change of MICs [2]: 1 fold
- MIC [2]: 0.02 µg/mL
- Fold changes of MICs [3]: 1 fold
- MIC [3, 19]: 0.01 µg/mL
- MIC [3, 20]: 0.01 µg/mL
- Fold changes of MICs [4]: 4 fold
- MIC [4]: 0.039 µg/mL
- efflux pump-mediated resistance vs EKO-35-Pore ([4]; MexCD, OM compromised): increased resistance
- Fold changes of MICs [5]: 2 fold
- MIC [5]: 0.02 µg/mL
- Fold changes of MICs [6]: 2 fold
- MIC [6]: 0.02 µg/mL
- Fold changes of MICs [7]: 2 fold
- MIC [7]: 0.02 µg/mL
- Fold changes of MICs [8]: 8 fold
- Fold changes of MICs [9]: 2 fold
- MIC [9]: 0.02 µg/mL
- Fold changes of MICs [10]: 4 fold
- MIC [10]: 0.039 µg/mL
- Fold changes of MICs [11]: 2 fold
- MIC [11]: 0.02 µg/mL
- Fold changes of MICs [12]: 2 fold
- MIC [12]: 0.02 µg/mL
- Fold changes of MICs [13]: 1 fold
- MIC [13]: 0.01 µg/mL
- Fold change of MICs [14]: 1 fold
- MIC [14, 21]: 0.02 µg/mL
- MIC [14, 22]: 0.02 µg/mL
- MIC [15]: 0.02 µg/mL
- Minimum inhibitory concentration (MIC), ΔtolC ([15]; Table 10): 0.020 µg/mL
- MIC [16, 23]: 0.078 µg/mL
- MIC [16, 24]: 0.078 µg/mL
- MIC [17]: 0.01 µg/mL
- Minimum inhibitory concentration (MIC), Pore ΔtolC [17]: 0.010 µg/mL
- MIC [18, 25]: 0.078 µg/mL
- MIC [18, 26]: 0.078 µg/mL

SMILES: CO[C@@H]1[C@@H](OC(N)=O)[C@@H](O)[C@H](Oc2ccc3c(O)c(NC(=O)c4ccc(O)c(CC=C(C)C)c4)c(=O)oc3c2C)OC1(C)C [novobiocin]
- Fold change of MICs [1]: 16 fold
- MIC [1]: 50 µg/mL
- Fold change of MICs [2]: 4 fold
- efflux pump-mediated resistance vs EKO-35 ([2]; MdtBC): conferred resistance
- Fold changes of MICs [3]: 1 fold
- MIC [3, 19]: 0.781 µg/mL
- MIC [3, 20]: 0.781 µg/mL
- Fold changes of MICs [4]: 4 fold
- MIC [4]: 3.12 µg/mL
- Fold changes of MICs [5]: 32 fold
- MIC [5]: 25 µg/mL
- Fold changes of MICs [6]: 1 fold
- MIC [6]: 0.781 µg/mL
- Fold changes of MICs [7]: 4 fold
- MIC [7]: 3.12 µg/mL
- Fold changes of MICs [8]: 512 fold
- Fold changes of MICs [9]: 1 fold
- MIC [9]: 0.391 µg/mL
- Fold changes of MICs [10]: 32 fold
- MIC [10]: 25 µg/mL
- Fold changes of MICs [11]: 8 fold
- MIC [11]: 6.25 µg/mL
- Fold changes of MICs [12]: 16 fold
- Fold changes of MICs [13]: 1 fold
- MIC [13]: 0.781 µg/mL
- Fold change of MICs [14]: 1 fold
- MIC [14, 21]: 3.12 µg/mL
- MIC [14, 22]: 3.12 µg/mL
- MIC [15]: 0.781 µg/mL
- Minimum inhibitory concentration (MIC), ΔtolC ([15]; Table 10): 0.781 µg/mL
- fold difference in MIC between EKO-35 and ΔtolC ([15]; ΔtolC mutant more susceptible than EKO-35, Table 10): 4 fold
- MIC [16, 23]: 200 µg/mL
- MIC [16, 24]: 200 µg/mL
- MIC [17]: 0.391 µg/mL
- Minimum inhibitory concentration (MIC), Pore ΔtolC [17]: 0.391 µg/mL
- MIC [18, 25]: 12.5 µg/mL
- MIC [18, 26]: 12.5 µg/mL
